Laboratory results reported in patent publication US10227356B2, “Compounds, compositions and methods for inhibiting CNKSR1” (Phusis Therapeutics, Inc., priority 2015, dated 2019).
Like-named read-outs stand apart in the source and are kept apart here.

Tests used:
AKT1 PH-domain = biological target: T1, AKT1 PH-domain (Homo sapiens, UniProt P31749); experiment: Surface plasmon resonance binding to AKT PH-domain; details: SPR; ND = no binding determined
T1 construct: The PH-domain His-fusion proteins (CNK1 and AKT1) were expressed and immobilized on a NTA chip; made in house
Description: All interaction analyses were done with a Biacore T200 Control Software v3.2, and BIAevaluation v2.0 analysis software (Biacore). The PH-domain His-fusion proteins (CNK1 and AKT1) were expressed and immobilized on a NTA chip to a level of 10,000 response units or less. Small molecule analytes at concentrations ranging from 50 μM to 0.010 μM were injected at a high flow rate (30 μL/min). DMSO concentrations in all samples and running buffer were 1-5% (v/v) […]
A commercially available docking package GLIDE was chosen as the docking algorithm used to select and optimize compounds, providing a GlideScore as a rough estimate of binding affinity that was used to rank and select the best compounds. Additionally, ligand-based approaches provided an alternative to structure based drug discovery. Ligand-based virtual screening methodologies can take into account shape and electrostatics and the pharmacophoric features (acceptor, donor, hydrophobic, aromatic, etc.) of its functional groups. Inositol tetraphosphate (IP4) binding to the PH-domain of CNKSR1 provided a good starting point for shape screening. Both structure-based and ligand-based approaches were used to find novel compounds and to refine and improve lead compounds (Tables 2, 3 and 4). SPR interaction analyses for the compounds were performed with a Biacore T200, using BiacoreT200 Control Software v3.2 and BIAevaluation v2.0analysis software (Biacore).

PH-domain of CNKSR1 = biological target: T2, PH-domain of CNKSR1 (Homo sapiens, UniProt Q969H4); experiment: Surface plasmon resonance binding to CNK PH-domain
T2 construct: The PH-domain His-fusion proteins (CNK1 and AKT1) were expressed and immobilized on a NTA chip; made in house
T2 sequence (Q969H4 403-502 limits assumed): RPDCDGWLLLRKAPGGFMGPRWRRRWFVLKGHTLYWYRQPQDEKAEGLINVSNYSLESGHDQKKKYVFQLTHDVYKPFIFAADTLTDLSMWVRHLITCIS
From the text: The PH-domain His-fusion proteins (CNK1 and AKT1) were expressed and immobilized on a NTA chip to a level of 10,000 response units or less.
Additionally, ligand-based approaches provided an alternative to structure based drug discovery.

mut-KRas NSCLC lines [1] = experiment: Proliferation assay 2D, mut-KRas NSCLC lines; format: cell-based; details: for In vitro IC50 against mut-KRas NSCLC 2D ave: mean of 12 mut-KRas NSCLC lines; for IC50: range across mut-Kras cell lines, read-out: In vitro IC50 against mut-KRas NSCLC 2D range
Description: A panel of 30 cell lines and an extensive characterization were obtained from Dr. John Minna (UTSW). All cell lines were cultured in RPMI 1640 with 10% FBS. Cells were treated with concentrations of agents at concentrations 0.01 to 50 μM and evaluated as described above. IC50's were determined using Excelfit.

Pharmacokinetics (PK) = format: in vivo; set-up: AUC: concentration or dose not given beside the values; details: for half-life: read-out: PK T1/2 (converted)
mut-KRAS cells = experiment: Proliferation assay, mut-KRAS cell lines; format: cell-based; details: read-out: Ave IC50 mut-KRAS
Description: (§1) These cells were cultured in McCoys media with 10% FBS to 80% confluency. […] Cells were incubated for 72 hours with the drugs, and then viability was assessed using an MTS viability assay. Cells were exposed to MTS reagent (Promega) dissolved in PBS (Hyclone) at a concentration of 200 μL reagent/mL media for 2 hours. Absorbance was then read at 490 nm, and viability was expressed as a percentage normalized between the negative control (no cells plated) and the condition of cells with no drug added (100% viability) normalized as the upper limit of viability. A panel of 30 cell lines and an extensive characterization were obtained from Dr. John Minna (UTSW). All cell lines were cultured in RPMI 1640 with 10% FBS. […] IC50's were determined using Excelfit.

wt-KRAS cells = experiment: Proliferation assay, wt-KRAS cell lines; format: cell-based; details: read-out: Ave IC50 wt-KRAS
Description: as §1

CNK1 = biological target: T3, CNK1 (Homo sapiens, UniProt Q969H4); experiment: SPR competition, CNK1 binding to PIP3; details: read-out: SPR Competition Percent inhibition of CNK1 binding to PIP3 at 50 μM, X = none
T3 construct: The PH-domain His-fusion proteins (CNK1 and AKT1) were expressed and immobilized on a NTA chip; made in house
T3 sequence (Q969H4 403-502 limits assumed): T2 sequence (Q969H4 403-502 limits assumed)

mut-KRas NSCLC lines [2] = experiment: Proliferation assay 3D, mut-KRas NSCLC lines; format: cell-based; details: for In vitro IC50 against mut-KRas NSCLC 3D ave: mean of 6 mut-KRas NSCLC lines; for IC50: range across mut-Kras cell lines, read-out: In vitro IC50 against mut-KRas NSCLC 3D range
Description: The plates were optimized for the best cell density and found to be 20,000 cells per mL. The lid was removed from a 96-well Greiner plate and turned upside down. 20 μL of the 20,000 cells per mL suspension was then added directly into the middle of the circles found on the lid of the 96-well plate forming a small drop. 100 μL of media was added into the corresponding wells, used to maintain the […] of the drops, and the lid was flipped back over carefully placing it back onto the plate without disturbing the drop. The plate was then placed into the incubator for 3 days to allow the cells to migrate to the bottom of the drop due to gravity. After 3 days, […] of media was added to the corresponding wells a SCIVAX 96-well plate. The lid from the Greiner 96-well plate was removed and placed onto the SCIVAX plate allowing the drop to come in contact with the media and placed back into the incubator. After one hour, 200 μL of media was removed from the corresponding wells carefully without disturbing the spheroid and imaged.

[3] = Summary table for CNKSR1 inhibitors, read-out: SPR Kd

T1 sequence (P31749 5-108 limits assumed): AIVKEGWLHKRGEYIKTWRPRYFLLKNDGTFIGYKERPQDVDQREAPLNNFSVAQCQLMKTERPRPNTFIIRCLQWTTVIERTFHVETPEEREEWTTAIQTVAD

Row | Compound | In vitro IC50 against mut-KRas NSCLC 2D ave (mut-KRas NSCLC lines [1]) [µM] | IC50 (mut-KRas NSCLC lines [1]) [µM] | half-life (Pharmacokinetics (PK); in vivo) [h] | IC50 (mut-KRAS cells) [µM] | IC50 (wt-KRAS cells) [µM] | IC50 (mut-KRas NSCLC lines [2]) [µM] | AUC (Pharmacokinetics (PK); in vivo) [ng·h/mL] | also measured
1 | COc1c(/C=C/C(=O)O)cc(NS(=O)(=O)c2cccs2)c2c1OCO2 [Compound 84, (E)-3-(4-methoxy-7-(thiophene-2-sulfonamido)benzo[d][1,3]dioxol-5-yl)acrylic acid] |  |  |  |  |  |  |  | AKT KD (AKT1 PH-domain): No binding
2 | CCOC(=O)CCc1cc(NS(=O)(=O)c2cccs2)c2c(c1OC)OCO2 [Compound 85, ethyl 3-(4-methoxy-7-(thiophene-2-sulfonamido)benzo[d][1,3]dioxol-5-yl)propanoate] |  |  |  |  |  |  |  | Kd (PH-domain of CNKSR1; SPR, ND = no binding determined, read-out: CNK KD): > 500 µM; Kd (AKT1 PH-domain): > 500 µM
3 | CCOC(=O)/C=C/c1cc(NS(=O)(=O)c2cccs2)c2c(c1OC)OCO2 [Compound 86, (E)-ethyl 3-(4-methoxy-7-(thiophene-2-sulfonamido)benzo[d][1,3]dioxol-5-yl)acrylate] |  |  |  |  |  |  |  | Kd (AKT1 PH-domain): > 500 µM
4 | CN1CC(=O)N(/C=C/c2cc(NS(=O)(=O)c3cccs3)c3c(c2O)OCO3)C1=O [Compound 91, (E)-N-(7-hydroxy-6-(2-(3-methyl-2,5-dioxoimidazolidin-1-yl)vinyl)benzo[d][1,3]dioxol-4-yl)thiophene-2-sulfonamide] | 23 | 6 to 35 | 1 |  |  |  |  | Kd (PH-domain of CNKSR1; [3]): 36 µM; Cmax (Pharmacokinetics (PK); in vivo, printed in the T1/2/AUC column): 2200 nM
5 | COc1c(/C=C2\SC(=S)NC2=O)c(NS(=O)(=O)c2cccs2)cc2c1OCO2 [Compound 103] | 25 | 5.1 to 60 |  |  |  |  |  | IC50 (mut-KRAS cells; average over mut-KRAS lines): 14.7 µM; IC50 (wt-KRAS cells; average over wt-KRAS lines): 95 µM
6 | O=c1ccoc2c3c(cc(NS(=O)(=O)c4cccs4)c12)OCO3 [Compound 104] |  |  |  |  |  |  |  | inhibition at 50 µM (CNK1): 0%; IC50 (mut-KRAS cells; average over mut-KRAS lines): 16.6 µM; IC50 (wt-KRAS cells; average over wt-KRAS lines): 100 µM
7 | CCNC(=O)/C=C/c1c(NS(=O)(=O)c2cccs2)cc2c(c1OC)OCO2 [Compound 105] | 6.7 | 1.6 to 94 |  | 10 | 100 |  |  | 
8 | CNC(=O)/C=C/c1c(NS(=O)(=O)c2cccs2)cc2c(c1OC)OCO2 [Compound 106] | 16.3 | 0.8 to 100 | 1.7 | 8.4 | 68 | 0.096 to 75 | 7000 | In vitro IC50 against mut-KRas NSCLC 3D ave (mut-KRas NSCLC lines [2]): 8.4 µM
9 | COc1c(/C=C/C(N)=O)c(NS(=O)(=O)c2cccs2)cc2c1OCO2 [Compound 107] | 19.5 | 1 to 100 | 3.2 | 1.5 | 100 | 0.82 to 75 | 34500 | In vitro IC50 against mut-KRas NSCLC 3D ave (mut-KRas NSCLC lines [2]): 1.5 µM
10 | COc1c(/C=C/C(=O)NCc2ccco2)c(NS(=O)(=O)c2cccs2)cc2c1OCO2 [Compound 108] | 35 | 0.2 to 100 | 1 | 5.2 | 100 |  | 3410 | 
11 | COc1c(/C=C/C(=O)N2CCOCC2)c(NS(=O)(=O)c2cccs2)cc2c1OCO2 [Compound 109] | 18.9 | 0.1 to 100 | 0.75 | 6.5 | 100 |  | 1200 | 
12 | COc1c(/C=C/C(=O)NC2CC2)c(NS(=O)(=O)c2cccs2)cc2c1OCO2 [Compound 110] | 15.7 | 4.3 to 100 |  |  |  | 0.23 to 75 |  | Kd (PH-domain of CNKSR1; [3]): < 50 µM; inhibition at 50 µM (CNK1): 0%; IC50 (mut-KRAS cells; average over mut-KRAS lines): 1.2 µM; IC50 (wt-KRAS cells; average over wt-KRAS lines): 35.7 µM; In vitro IC50 against mut-KRas NSCLC 3D ave (mut-KRas NSCLC lines [2]): 1.2 µM
13 | COc1c(/C=C/C(=O)N2CCN(C)CC2)c(NS(=O)(=O)c2cccs2)cc2c1OCO2 [Compound 111] | 19.2 | 0.6 to 100 | 1 | 4.1 | 33.7 | 0.12 to 13.2 | 30000 | In vitro IC50 against mut-KRas NSCLC 3D ave (mut-KRas NSCLC lines [2]): 4.1 µM
14 | COc1c(/C=C/C(=O)NCC(C)O)c(NS(=O)(=O)c2cccs2)cc2c1OCO2 (centres unmarked) [Compound 112] | 65 | 19 to 100 |  | 25 | 100 |  |  | 
15 | CCOC(=O)/C=C/c1c(NS(=O)(=O)c2cccs2)cc2c(c1OC)OCCO2 [Compound 113] | 25 | 13.7 to 100 |  | 55.1 | 100 |  |  | 
16 | COc1c(/C=C/C(=O)O)c(NS(=O)(=O)c2cccs2)cc2c1OCCO2 [Compound 114] | 57 | 12.1 to 100 |  | 85 | 100 |  |  | 
17 | COc1c(/C=C/CO)c(NS(=O)(=O)c2cccs2)cc2c1OCCO2 [Compound 115] | 11.2 | 1.6 to 100 |  | 39.1 | 100 |  |  | 
18 | CCOC(=O)/C=C/c1cc(NS(=O)(=O)c2cccs2)c2c(c1OC)OCCO2 [Compound 116] |  |  |  |  |  |  |  | IC50 (mut-KRAS cells; average over mut-KRAS lines): 100 µM
19 | CCOC(=O)/C=C/c1c(NS(=O)(=O)c2cccs2)cc2c(c1OC)OCO2 [Compound 151, ethyl 3-[4-methoxy-6-(thiophene-2-sulfonamido)-2H-1,3-benzodioxol-5-yl]prop-2-enoate] | 18 | 0.5 to 100 | 0.5 |  |  | 0.025 to 2.7 |  | In vitro IC50 against mut-KRas NSCLC 3D ave (mut-KRas NSCLC lines [2]): 0.69 µM; PK metabolism (remark in place of AUC) (Pharmacokinetics (PK); AUC NA): rapid
20 | COc1c(/C=C/CO)c(NS(=O)(=O)c2cccs2)cc2c1OCO2 [Compound 152, N-{6-[(1E)-3-hydroxyprop-1-en-1-yl]-7-methoxy-2H-1,3-benzodioxol-5-yl}thiophene-2-sulfonamide] | 20 | 0.1 to 100 | 3.1 |  |  | 0.015 to 0.26 | 7000 | 
